From US12679878B2, “CRF2 receptor agonists and their use in therapy” (SANOFI, priority 2020, dated 2026)
Where two headings read alike, the source gives them in different places. Starred links: 1 amine or outer side, 2 acyl side, 3 side chain; linkers in the order of their positions; H or OH if unused. Non-standard residues stand in square brackets, D forms with d. Residues, ends and D or L forms follow the SMILES beside them. Groups on a side chain read outwards from the residue. *: point of attachment. C20 diacid = O=C(O)CCCCCCCCCCCCCCCCCCC(=O)*; C18 diacid = O=C(O)CCCCCCCCCCCCCCCCC(=O)*; γGlu = O=C(O)[C@H](CCC(=O)[*:2])N[*:1]; AEEA = NCCOCCOCC(=O)O; Aib = CC(C)(N)C(=O)O

Target: T1, human CRF2α receptor (Homo sapiens, UniProt Q13324)
T1 construct: expressed in transfected cells; host or cells: TeloHEAC
T1 sequence (Q13324 1-411): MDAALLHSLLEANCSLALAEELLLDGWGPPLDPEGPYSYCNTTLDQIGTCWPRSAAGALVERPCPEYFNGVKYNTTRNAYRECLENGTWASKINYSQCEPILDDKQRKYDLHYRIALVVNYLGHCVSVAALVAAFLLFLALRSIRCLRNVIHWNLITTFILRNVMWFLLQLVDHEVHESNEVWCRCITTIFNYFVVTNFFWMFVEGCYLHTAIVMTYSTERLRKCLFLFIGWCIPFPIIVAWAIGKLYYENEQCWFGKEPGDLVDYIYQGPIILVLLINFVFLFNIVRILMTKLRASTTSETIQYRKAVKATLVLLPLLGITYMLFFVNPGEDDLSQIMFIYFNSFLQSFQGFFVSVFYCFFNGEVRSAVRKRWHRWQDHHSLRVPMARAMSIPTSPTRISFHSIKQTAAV
Assay: cAMP agonism at human CRF2 α receptor in TeloHEAC cells (Example 7)
Format: cell-based
Details: cAMP HTRF, TeloHEAC cells stably expressing human CRF2 α
Procedure, shortened: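 Thawed frozen stably transfected cells in HBSS/20 mM HEPES (0% or 0.1% HSA) plus 2 mM IBMX were exposed to compound at 2000 cells/well for 30 min at room temperature. Intracellular cAMP was read by HTRF (665/620 nm ratio) after 1 h lysis; EC50 was derived with 1000 nM urocortin 2 set as 100%.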

[1] = 0% HSA, read-out: EC50 [nM], 0% HSA
[2] = 0.1% HSA, read-out: EC50 [nM], 0.1% HSA

`CC[C@H](C)[C@H](N)C(=O)N[C@H](C(=O)N[C@@H](CC(C)C)C(=O)N[C@@H](CO)C(=O)N[C@@H](CC(C)C)C(=O)N[C@@H](CC(=O)O)C(=O)N[C@H](C(=O)N1CCC[C@H]1C(=O)N[C@H](C(=O)NCC(=O)N[C@@H](CC(C)C)C(=O)N[C@@H](CCCCNC(=O)COCCOCCNC(=O)COCCOCCNC(=O)CC[C@H](NC(=O)CCCCCCCCCCCCCCCCC(=O)O)C(=O)O)C(=O)N[C@@H](CCC(N)=O)C(=O)N[C@H](C(=O)N[C@@H](CC(C)C)C(=O)N[C@@H](CC(C)C)C(=O)N[C@@H](CCC(=O)O)C(=O)N[C@@H](CCC(N)=O)C(=O)N[C@@H](CCC(=O)O)C(=O)N[C@@H](CCCCN)C(=O)N[C@@H](CCC(N)=O)C(=O)N[C@@H](CCC(=O)O)C(=O)N[C@@H](CCCCN)C(=O)N[C@@H](CCC(=O)O)C(=O)N[C@@H](CCCCN)C(=O)N[C@@H](CCC(N)=O)C(=O)N[C@@H](CCC(N)=O)C(=O)N[C@@H](C)C(=O)N[C@@H](CCC(=O)O)C(=O)N[C@@H](CCCCN)C(=O)N[C@@H](CC(N)=O)C(=O)N[C@@H](CCCCN)C(=O)N[C@@H](CCCNC(=N)N)C(=O)N[C@H](C(=O)N[C@@H](CC(C)C)C(=O)N[C@@H](CCC(=O)O)C(=O)N[C@@H](CCCNC(=N)N)C(=O)N[C@H](C(N)=O)C(C)C)[C@@H](C)CC)[C@@H](C)CC)[C@@H](C)CC)C(C)C)C(C)C` [compound 155] (H-IVLSLDVPIGLK([AEEA-AEEA-γGlu-C18 diacid])QILLEQEKQEKEKQQAEKNKRILERV-NH2) was tested, and the EC50 [1] was 8.87 nM.

`CC[C@H](C)[C@H](N)C(=O)N[C@H](C(=O)N[C@@H](CC(C)C)C(=O)N[C@@H](CO)C(=O)N[C@@H](CC(C)C)C(=O)N[C@@H](CC(=O)O)C(=O)N[C@@H](C(=O)N1CCC[C@H]1C(=O)N[C@H](C(=O)N[C@@H](CCCCN)C(=O)N[C@@H](CC(C)C)C(=O)N[C@@H](CCCCNC(=O)COCCOCCNC(=O)COCCOCCNC(=O)CC[C@H](NC(=O)CCCCCCCCCCCCCCCCCCC(=O)O)C(=O)O)C(=O)N[C@@H](CCC(N)=O)C(=O)N[C@H](C(=O)N[C@@H](CC(C)C)C(=O)N[C@@H](CC(C)C)C(=O)N[C@@H](CCCCN)C(=O)N[C@@H](CCC(N)=O)C(=O)N[C@@H](C)C(=O)N[C@@H](CCCNC(=N)N)C(=O)N[C@@H](CCC(N)=O)C(=O)N[C@@H](CCCCN)C(=O)NC(C)(C)C(=O)N[C@@H](CCC(N)=O)C(=O)N[C@@H](CCCNC(=N)N)C(=O)N[C@@H](C)C(=O)N[C@@H](CCC(N)=O)C(=O)N[C@@H](C)C(=O)N[C@@H](CCC(=O)O)C(=O)N[C@@H](CCCCN)C(=O)N[C@@H](CC(N)=O)C(=O)N[C@@H](CCCCN)C(=O)N[C@@H](CCCNC(=N)N)C(=O)N[C@H](C(=O)N[C@@H](CC(C)C)C(=O)N[C@@H](CCC(=O)O)C(=O)N[C@@H](CCCNC(=N)N)C(=O)N[C@H](C(N)=O)C(C)C)[C@@H](C)CC)[C@@H](C)CC)[C@@H](C)CC)C(C)C)C(C)C` [compound 175] (H-IVLSLD[dV]PIKLK([AEEA-AEEA-γGlu-C20 diacid])QILLKQARQK[Aib]QRAQAEKNKRILERV-NH2; N-terminus assumed) was tested, and the EC50 [1] was 0.06 nM and the EC50 [2] was 3.64 nM.

Compound `CC[C@H](C)[C@H](N)C(=O)N[C@H](C(=O)N[C@@H](CC(C)C)C(=O)N[C@@H](CO)C(=O)N[C@@H](CC(C)C)C(=O)N[C@@H](CC(=O)O)C(=O)N[C@@H](C(=O)N1CCC[C@H]1C(=O)N[C@H](C(=O)N[C@@H](CCCCN)C(=O)N[C@@H](CC(C)C)C(=O)N[C@@H](CCCCNC(=O)COCCOCCNC(=O)COCCOCCNC(=O)CC[C@H](NC(=O)CC[C@H](NC(=O)CCCCCCCCCCCCCCCCC(=O)O)C(=O)O)C(=O)O)C(=O)N[C@@H](CCC(N)=O)C(=O)N[C@H](C(=O)N[C@@H](CC(C)C)C(=O)N[C@@H](CC(C)C)C(=O)N[C@@H](CCCCN)C(=O)N[C@@H](CCC(N)=O)C(=O)N[C@@H](CCC(=O)O)C(=O)N[C@@H](CCCNC(=N)N)C(=O)N[C@@H](CCC(N)=O)C(=O)N[C@@H](CCCCN)C(=O)N[C@@H](CCCCN)C(=O)N[C@@H](CCC(N)=O)C(=O)N[C@@H](CCCNC(=N)N)C(=O)N[C@@H](CCC(N)=O)C(=O)N[C@@H](CCC(N)=O)C(=O)N[C@@H](C)C(=O)N[C@@H](CCC(=O)O)C(=O)N[C@@H](CCCCN)C(=O)N[C@@H](CC(N)=O)C(=O)N[C@@H](CCCCN)C(=O)N[C@@H](CCC(N)=O)C(=O)N[C@H](C(=O)N[C@@H](CC(C)C)C(=O)N[C@@H](C)C(=O)N[C@@H](CCC(N)=O)C(=O)N[C@H](C(N)=O)C(C)C)[C@@H](C)CC)[C@@H](C)CC)[C@@H](C)CC)C(C)C)C(C)C` [compound 176] (H-IVLSLD[dV]PIKLK([AEEA-AEEA-γGlu-γGlu-C18 diacid])QILLKQERQKKQRQQAEKNKQILAQV-NH2; N-terminus assumed) has an EC50 [1] of 0.11 nM and an EC50 [2] of 3.05 nM.

Compound `CC[C@H](C)[C@H](N)C(=O)N[C@H](C(=O)N[C@@H](CC(C)C)C(=O)N[C@@H](CO)C(=O)N[C@@H](CC(C)C)C(=O)N[C@@H](CC(=O)O)C(=O)N[C@@H](C(=O)N1CCC[C@H]1C(=O)N[C@H](C(=O)N[C@@H](CCCCN)C(=O)N[C@@H](CC(C)C)C(=O)N[C@@H](CCCCNC(=O)COCCOCCNC(=O)COCCOCCNC(=O)CC[C@H](NC(=O)CC[C@H](NC(=O)CCCCCCCCCCCCCCCCCCC(=O)O)C(=O)O)C(=O)O)C(=O)N[C@@H](CCC(N)=O)C(=O)N[C@H](C(=O)N[C@@H](CC(C)C)C(=O)N[C@@H](CC(C)C)C(=O)N[C@@H](CCCCN)C(=O)N[C@@H](CCC(N)=O)C(=O)N[C@@H](CCC(=O)O)C(=O)N[C@@H](CCCNC(=N)N)C(=O)N[C@@H](CCC(N)=O)C(=O)N[C@@H](CCCCN)C(=O)N[C@@H](CCCCN)C(=O)N[C@@H](CCC(N)=O)C(=O)N[C@@H](CCCNC(=N)N)C(=O)N[C@@H](CCC(N)=O)C(=O)N[C@@H](CCC(N)=O)C(=O)N[C@@H](C)C(=O)N[C@@H](CCC(=O)O)C(=O)N[C@@H](CCCCN)C(=O)N[C@@H](CC(N)=O)C(=O)N[C@@H](CCCCN)C(=O)N[C@@H](CCC(N)=O)C(=O)N[C@H](C(=O)N[C@@H](CC(C)C)C(=O)N[C@@H](C)C(=O)N[C@@H](CCC(N)=O)C(=O)N[C@H](C(N)=O)C(C)C)[C@@H](C)CC)[C@@H](C)CC)[C@@H](C)CC)C(C)C)C(C)C` [compound 177] (H-IVLSLD[dV]PIKLK([AEEA-AEEA-γGlu-γGlu-C20 diacid])QILLKQERQKKQRQQAEKNKQILAQV-NH2) has an EC50 [1] of 0.07 nM and an EC50 [2] of 5.19 nM.

With `CC[C@H](C)[C@H](N)C(=O)N[C@H](C(=O)N[C@@H](CC(C)C)C(=O)N[C@@H](CO)C(=O)N[C@@H](CC(C)C)C(=O)N[C@@H](CC(=O)O)C(=O)N[C@@H](C(=O)N1CCC[C@H]1C(=O)N[C@H](C(=O)N[C@@H](CCCCN)C(=O)N[C@@H](CC(C)C)C(=O)N[C@@H](CCCCNC(=O)COCCOCCNC(=O)COCCOCCNC(=O)CC[C@H](NC(=O)CCCCCCCCCCCCCCCCCCC(=O)O)C(=O)O)C(=O)N[C@@H](CCC(N)=O)C(=O)N[C@H](C(=O)N[C@@H](CC(C)C)C(=O)N[C@@H](CC(C)C)C(=O)N[C@@H](CCCCN)C(=O)N[C@@H](CCC(N)=O)C(=O)N[C@@H](CCC(=O)O)C(=O)N[C@@H](CCCNC(=N)N)C(=O)N[C@@H](CCC(N)=O)C(=O)N[C@@H](CCCCN)C(=O)N[C@@H](CCCCN)C(=O)N[C@@H](CCC(N)=O)C(=O)N[C@@H](CCCNC(=N)N)C(=O)N[C@@H](CCC(N)=O)C(=O)N[C@@H](CCC(N)=O)C(=O)N[C@@H](C)C(=O)N[C@@H](CCC(=O)O)C(=O)N[C@@H](CCCCN)C(=O)N[C@@H](CC(N)=O)C(=O)N[C@@H](CCCCN)C(=O)N[C@@H](CCC(N)=O)C(=O)N[C@H](C(=O)N[C@@H](CC(C)C)C(=O)N[C@@H](C)C(=O)N[C@@H](CCC(N)=O)C(=O)N[C@H](C(N)=O)C(C)C)[C@@H](C)CC)[C@@H](C)CC)[C@@H](C)CC)C(C)C)C(C)C` [compound 178] (H-IVLSLD[dV]PIKLK([AEEA-AEEA-γGlu-C20 diacid])QILLKQERQKKQRQQAEKNKQILAQV-NH2; N-terminus assumed) the EC50 [1] was 0.04 nM and the EC50 [2] was 3.77 nM.

With `CC[C@H](C)[C@H](N)C(=O)N[C@H](C(=O)N[C@@H](CC(C)C)C(=O)N[C@@H](CO)C(=O)N[C@@H](CC(C)C)C(=O)N[C@@H](CC(=O)O)C(=O)N[C@@H](C(=O)N1CCC[C@H]1C(=O)N[C@H](C(=O)N[C@@H](CCCCN)C(=O)N[C@@H](CC(C)C)C(=O)N[C@@H](CCCCNC(=O)CC[C@H](NC(=O)CCCCCCCCCCCCCCCCC(=O)O)C(=O)O)C(=O)N[C@@H](CCC(N)=O)C(=O)N[C@H](C(=O)N[C@@H](CC(C)C)C(=O)N[C@@H](CC(C)C)C(=O)N[C@@H](CCCCN)C(=O)N[C@@H](CCC(N)=O)C(=O)N[C@@H](CCC(=O)O)C(=O)N[C@@H](CCCNC(=N)N)C(=O)N[C@@H](CCC(N)=O)C(=O)N[C@@H](CCCCN)C(=O)NC(C)(C)C(=O)N[C@@H](CCC(N)=O)C(=O)N[C@@H](CCCNC(=N)N)C(=O)N[C@@H](CCC(=O)O)C(=O)N[C@@H](CCC(N)=O)C(=O)N[C@@H](C)C(=O)N[C@@H](CCC(=O)O)C(=O)N[C@@H](CCCCN)C(=O)N[C@@H](CC(N)=O)C(=O)N[C@@H](CCCCN)C(=O)N[C@@H](CCC(N)=O)C(=O)N[C@H](C(=O)N[C@@H](CC(C)C)C(=O)N[C@@H](C)C(=O)N[C@@H](CCC(N)=O)C(=O)N[C@H](C(N)=O)C(C)C)[C@@H](C)CC)[C@@H](C)CC)[C@@H](C)CC)C(C)C)C(C)C` [compound 179] (H-IVLSLD[dV]PIKLK([γGlu-C18 diacid])QILLKQERQK[Aib]QREQAEKNKQILAQV-NH2; N-terminus assumed) the EC50 [1] was 0.03 nM and the EC50 [2] was 1.88 nM.
